Assay results as given in PubChem BioAssay AID1259407 (Chemical Carcinogenesis Research Information System (CCRIS), 2018).
Calls of active or inactive are those of the source. No rule for the calls is given here.

Tested on: CCRIS mutagenicity, Ames/micronucleus/aberration tests
Assay: CCRIS mutagenicity studies

O=NO
mutagenic call (End Point: IN VIVO MICRONUCLEUS, Test System: BONE MARROW POLYCHROMATIC ERYTHROCYTES, Species: MOUSE, Strain/Sex: DDY/MALE, Route: IP): inactive; negative
mutagenic call (End Point: IN VIVO MICRONUCLEUS, Test System: BONE MARROW POLYCHROMATIC ERYTHROCYTES, Species: MOUSE, Strain/Sex: DDY/MALE, Route: ORAL): inactive; negative
mutagenic call (End Point: In vitro chromosomal aberrations, Test System: Chinese hamster lung CHL/IU cells, Metabolic Activation: None): inactive; negative
mutagenic call (Test System: AMES SALMONELLA TYPHIMURIUM, Strain/Indicator: DJ400, Metabolic Activation: NONE, Method: PREINCUBATION): inactive; negative
mutagenic call (Test System: AMES SALMONELLA TYPHIMURIUM, Strain/Indicator: DJ400, Metabolic Activation: NONE, Method: STANDARD PLATE): inactive; negative
mutagenic call (Test System: AMES SALMONELLA TYPHIMURIUM, Strain/Indicator: DJ400, Metabolic Activation: RAT, LIVER, S-9, AROCLOR 1254, Method: PREINCUBATION): inactive; negative
mutagenic call (Test System: AMES SALMONELLA TYPHIMURIUM, Strain/Indicator: DJ400, Metabolic Activation: RAT, LIVER, S-9, AROCLOR 1254, Method: STANDARD PLATE): inactive; negative
mutagenic call (Test System: AMES SALMONELLA TYPHIMURIUM, Strain/Indicator: DJ460, Metabolic Activation: NONE, Method: PREINCUBATION): inactive; negative
mutagenic call (Test System: AMES SALMONELLA TYPHIMURIUM, Strain/Indicator: DJ460, Metabolic Activation: NONE, Method: STANDARD PLATE): inactive; negative
mutagenic call (Test System: AMES SALMONELLA TYPHIMURIUM, Strain/Indicator: DJ460, Metabolic Activation: RAT, LIVER, S-9, AROCLOR 1254, Method: PREINCUBATION): inactive; negative
mutagenic call (Test System: AMES SALMONELLA TYPHIMURIUM, Strain/Indicator: DJ460, Metabolic Activation: RAT, LIVER, S-9, AROCLOR 1254, Method: STANDARD PLATE): inactive; negative
mutagenic call (Test System: AMES SALMONELLA TYPHIMURIUM, Strain/Indicator: TA97, Metabolic Activation: NONE, Method: STANDARD PLATE): inactive; negative
mutagenic call (Test System: AMES SALMONELLA TYPHIMURIUM, Strain/Indicator: TA97, Metabolic Activation: RAT, LIVER, S-9, AROCLOR 1254, Method: STANDARD PLATE): inactive; negative
mutagenic call (Test System: AMES SALMONELLA TYPHIMURIUM, Strain/Indicator: TA98, Metabolic Activation: HAMSTER LIVER S-9, AROCLOR 1254 (30%), Method: PREINCUBATION): inactive; negative
mutagenic call (Test System: AMES SALMONELLA TYPHIMURIUM, Strain/Indicator: TA98, Metabolic Activation: HAMSTER, LIVER, S-9, AROCLOR 1254 (30%), Method: PREINCUBATION): inactive; negative
mutagenic call (Test System: AMES SALMONELLA TYPHIMURIUM, Strain/Indicator: TA98, Metabolic Activation: NONE, Method: PREINCUBATION): inactive; negative
mutagenic call (Test System: AMES SALMONELLA TYPHIMURIUM, Strain/Indicator: TA98, Metabolic Activation: NONE, Method: STANDARD PLATE): inactive; negative
mutagenic call (Test System: AMES SALMONELLA TYPHIMURIUM, Strain/Indicator: TA98, Metabolic Activation: RAT LIVER S-9, AROCLOR 1254 (30%), Method: PREINCUBATION): inactive; negative
mutagenic call (Test System: AMES SALMONELLA TYPHIMURIUM, Strain/Indicator: TA98, Metabolic Activation: RAT, LIVER, S-9, AROCLOR 1254 (30%), Method: PREINCUBATION): inactive; negative
mutagenic call (Test System: AMES SALMONELLA TYPHIMURIUM, Strain/Indicator: TA98, Metabolic Activation: RAT, LIVER, S-9, AROCLOR 1254, Method: STANDARD PLATE): inactive; negative
mutagenic call (Test System: AMES SALMONELLA TYPHIMURIUM, Strain/Indicator: TA98, Metabolic Activation: RAT, LIVER, S-9, Method: STANDARD PLATE): inactive; negative
mutagenic call (Test System: AMES SALMONELLA TYPHIMURIUM, Strain/Indicator: TA100, Metabolic Activation: HAMSTER LIVER S-9, AROCLOR 1254 (30%), Method: PREINCUBATION): active; positive
mutagenic call (Test System: AMES SALMONELLA TYPHIMURIUM, Strain/Indicator: TA100, Metabolic Activation: HAMSTER, LIVER, S-9, AROCLOR 1254 (30%), Method: PREINCUBATION): active; positive
mutagenic call (Test System: AMES SALMONELLA TYPHIMURIUM, Strain/Indicator: TA100, Metabolic Activation: NONE, Method: PREINCUBATION): active; positive
mutagenic call (Test System: AMES SALMONELLA TYPHIMURIUM, Strain/Indicator: TA100, Metabolic Activation: NONE, Method: STANDARD PLATE): active; positive
mutagenic call (Test System: AMES SALMONELLA TYPHIMURIUM, Strain/Indicator: TA100, Metabolic Activation: RAT LIVER S-9, AROCLOR 1254 (30%), Method: PREINCUBATION): active; positive
mutagenic call (Test System: AMES SALMONELLA TYPHIMURIUM, Strain/Indicator: TA100, Metabolic Activation: RAT, LIVER, S-9, AROCLOR 1254 (30%), Method: PREINCUBATION): active; positive
mutagenic call (Test System: AMES SALMONELLA TYPHIMURIUM, Strain/Indicator: TA100, Metabolic Activation: RAT, LIVER, S-9, AROCLOR 1254, Method: PREINCUBATION): active; positive
mutagenic call (Test System: AMES SALMONELLA TYPHIMURIUM, Strain/Indicator: TA100, Metabolic Activation: RAT, LIVER, S-9, AROCLOR 1254, Method: STANDARD PLATE): active; positive
mutagenic call (Test System: AMES SALMONELLA TYPHIMURIUM, Strain/Indicator: TA100, Metabolic Activation: RAT, LIVER, S-9, Method: STANDARD PLATE): active; positive
mutagenic call (Test System: AMES SALMONELLA TYPHIMURIUM, Strain/Indicator: TA102, Metabolic Activation: NONE, Method: PREINCUBATION): inactive; negative
mutagenic call (Test System: AMES SALMONELLA TYPHIMURIUM, Strain/Indicator: TA102, Metabolic Activation: NONE, Method: STANDARD PLATE): inactive; negative
mutagenic call (Test System: AMES SALMONELLA TYPHIMURIUM, Strain/Indicator: TA102, Metabolic Activation: RAT, LIVER, S-9, AROCLOR 1254, Method: PREINCUBATION): inactive; negative
mutagenic call (Test System: AMES SALMONELLA TYPHIMURIUM, Strain/Indicator: TA102, Metabolic Activation: RAT, LIVER, S-9, AROCLOR 1254, Method: STANDARD PLATE): inactive; negative
mutagenic call (Test System: AMES SALMONELLA TYPHIMURIUM, Strain/Indicator: TA104, Metabolic Activation: RAT, LIVER, S-9, AROCLOR 1254, Method: PREINCUBATION): active; positive
mutagenic call (Test System: AMES SALMONELLA TYPHIMURIUM, Strain/Indicator: TA1530, Metabolic Activation: NONE, Method: PREINCUBATION): active; positive
mutagenic call (Test System: AMES SALMONELLA TYPHIMURIUM, Strain/Indicator: TA1530, Metabolic Activation: NONE, Method: STANDARD PLATE): active; positive
mutagenic call (Test System: AMES SALMONELLA TYPHIMURIUM, Strain/Indicator: TA1530, Metabolic Activation: RAT, LIVER, S-9, AROCLOR 1254, Method: PREINCUBATION): active; positive
mutagenic call (Test System: AMES SALMONELLA TYPHIMURIUM, Strain/Indicator: TA1530, Metabolic Activation: RAT, LIVER, S-9, AROCLOR 1254, Method: STANDARD PLATE): active; positive
mutagenic call (Test System: AMES SALMONELLA TYPHIMURIUM, Strain/Indicator: TA1535, Metabolic Activation: NONE, Method: PREINCUBATION): active; positive
mutagenic call (Test System: AMES SALMONELLA TYPHIMURIUM, Strain/Indicator: TA1535, Metabolic Activation: NONE, Method: STANDARD PLATE): active; positive
mutagenic call (Test System: AMES SALMONELLA TYPHIMURIUM, Strain/Indicator: TA1535, Metabolic Activation: RAT, LIVER, S-9, AROCLOR 1254, Method: PREINCUBATION): active; positive
mutagenic call (Test System: AMES SALMONELLA TYPHIMURIUM, Strain/Indicator: TA1535, Metabolic Activation: RAT, LIVER, S-9, AROCLOR 1254, Method: STANDARD PLATE): active; positive
mutagenic call (Test System: AMES SALMONELLA TYPHIMURIUM, Strain/Indicator: TA1535, Metabolic Activation: RAT, LIVER, S-9, Method: STANDARD PLATE): active; positive
mutagenic call (Test System: AMES SALMONELLA TYPHIMURIUM, Strain/Indicator: TA1537, Metabolic Activation: NONE, Method: STANDARD PLATE): inactive; negative
mutagenic call (Test System: AMES SALMONELLA TYPHIMURIUM, Strain/Indicator: TA1537, Metabolic Activation: RAT, LIVER, S-9, AROCLOR 1254, Method: STANDARD PLATE): inactive; negative
mutagenic call (Test System: AMES SALMONELLA TYPHIMURIUM, Strain/Indicator: TA1538, Metabolic Activation: NONE, Method: STANDARD PLATE): inactive; negative
mutagenic call (Test System: AMES SALMONELLA TYPHIMURIUM, Strain/Indicator: TA1538, Metabolic Activation: RAT, LIVER, S-9, AROCLOR 1254, Method: STANDARD PLATE): inactive; negative
mutagenic call (Test System: AMES SALMONELLA TYPHIMURIUM, Strain/Indicator: TA1538, Metabolic Activation: RAT, LIVER, S-9, Method: STANDARD PLATE): inactive; negative
mutagenic call (Test System: AMES SALMONELLA TYPHIMURIUM, Strain/Indicator: YG1024, Metabolic Activation: NONE, Method: PREINCUBATION): inactive; negative
mutagenic call (Test System: AMES SALMONELLA TYPHIMURIUM, Strain/Indicator: YG1024, Metabolic Activation: NONE, Method: STANDARD PLATE): inactive; negative
mutagenic call (Test System: AMES SALMONELLA TYPHIMURIUM, Strain/Indicator: YG1024, Metabolic Activation: RAT, LIVER, S-9, AROCLOR 1254, Method: PREINCUBATION): inactive; negative
mutagenic call (Test System: AMES SALMONELLA TYPHIMURIUM, Strain/Indicator: YG1024, Metabolic Activation: RAT, LIVER, S-9, AROCLOR 1254, Method: STANDARD PLATE): inactive; negative
mutagenic call (Test System: CHINESE HAMSTER V-79, Strain/Indicator: V-79/6-THIOGUANINE, Metabolic Activation: NONE): active; positive
mutagenic call (Test System: E. COLI, Strain/Indicator: WP2, Metabolic Activation: NONE, Method: STANDARD PLATE): inactive; negative
mutagenic call (Test System: E. COLI, Strain/Indicator: WP2, Metabolic Activation: RAT, LIVER, S-9, AROCLOR 1254, Method: STANDARD PLATE): inactive; negative
mutagenic call (Test System: E.COLI, Strain/Indicator: WP2UVRA/PKM101, Metabolic Activation: NONE, Method: PREINCUBATION): inactive; negative
mutagenic call (Test System: E.COLI, Strain/Indicator: WP2UVRA/PKM101, Metabolic Activation: RAT LIVER S-9, PHENOBARBITAL AND 5,6-BENZOFLAVONE, Method: PREINCUBATION): inactive; negative
mutagenic call (Test System: MOUSE LYMPHOMA, Strain/Indicator: L5178Y (TK+/TK-), Metabolic Activation: NONE, Method: SUSPENSION/PLATE): active; positive
